Experiment [1] concerns the target T1, HCV polymerase (NS5B) type 1b (Hepatitis C virus genotype 1b, UniProt P26663).
T1 construct: a region encoding NS5B (J Virol 1991 March, 65(3), 1105-13, 544 amino acids after deletion of 47 amino acids on the C-terminal); 6xHis (C); made in house; host or cells: Escherichia coli
Description: Assay of enzyme (HCV polymerase) inhibitory activity, type 1b enzyme. It is filed as biochemical, HCV BK strain (type 1b). To be noted: HCV polymerase inhibitory activity (IC50), 1b, type 1b enzyme 0.5 μg/ml, 25° C., 60 min. Summed up:
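IC50 derived from [3H]UTP incorporation into TCA-insoluble RNA, compared with and without test compound. Reaction (25 °C, 60 min, Tris pH 7.5, 5 mM MgCl2): E. coli-expressed 1b NS5B Δ47 with His tag at 0.5 μg/ml, 5 μg/ml run-off substrate RNA, ATP/GTP/CTP 50 μM, UTP 2 μM.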

The target of experiment [2] is T2, HCV polymerase (NS5B) type 1a (Hepatitis C virus genotype 1a, UniProt P26664).
T2 construct: made in house; host or cells: Escherichia coli (by the 'similar method' of the 1b enzyme)
Description: Assay of enzyme (HCV polymerase) inhibitory activity, type 1a enzyme. The format is biochemical, HCV type 1a (cloned from the blood of patients). To be noted: HCV polymerase inhibitory activity (IC50), 1a, type 1a enzyme 1.5 μg/ml, 25° C., 60 min. Summed up: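 Reactions ran 60 min at 25° C in 20 mM Tris-HCl pH 7.5, 5 mM MgCl2, 50 mM NaCl, holding genotype 1a NS5B (1.5 μg/ml, Δ47 C-terminus, 6His), substrate RNA 5 μg/ml, UTP 2 μM with tritiated UTP and other NTPs 50 μM. IC50 derived from incorporated radiolabel in filter-trapped RNA relative to uninhibited reaction.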

A value given as a limit tells only on which side of the number the result lay.

The term IC50 denotes the midpoint of a concentration-inhibition curve. Low readings indicate greater potency in that assay, high ones weaker potency in that assay. With `CCC(F)(F)c1ccc(CNC(=O)[C@H]2CN(C(=O)Nc3ccnc(CO)c3)CCN2S(=O)(=O)c2ccc(OC(F)(F)F)cc2)cc1` [Example 511, (R)-4-(4-trifluoromethoxy-benzenesulfonyl)-piperazine-1,3-dicarboxylic acid 3-[4-(1,1-difluoro-propyl)-benzylamide] 1-[(2-hydroxymethyl-pyridin-4-yl)-amide]], the 50% inhibitory concentration (IC50) in experiment [1] and in experiment [2] was under 0.1 µM throughout.
With `CCC(F)(F)c1ccc(CNC(=O)[C@H]2CN(C(=O)Nc3ccnc(C(=O)NC4CC4)c3)CCN2S(=O)(=O)c2ccc(OC(F)(F)F)cc2)cc1` [Example 512, (R)-4-(4-trifluoromethoxy-benzenesulfonyl)-piperazine-1,3-dicarboxylic acid 1-[(2-cyclopropylcarbamoyl-pyridin-4-yl)-amide] 3-[4-(1,1-difluoro-propyl)-benzylamide]], the IC50 in experiment [1] and in experiment [2] was under 0.1 µM each time.
Consider `CCC(F)(F)c1ccc(CNC(=O)[C@H]2CN(C(=O)Nc3ccnc(C(=O)N4CCOCC4)c3)CCN2S(=O)(=O)c2ccc(OC(F)(F)F)cc2)cc1` [Example 513, (R)-4-(4-trifluoromethoxy-benzenesulfonyl)-piperazine-1,3-dicarboxylic acid 3-[4-(1,1-difluoro-propyl)-benzylamide] 1-{[2-(morpholine-4-carbonyl)-pyridin-4-yl]-amide}], for which the IC50 in experiment [1] and in experiment [2] was under 0.1 µM throughout.
For the compound `CCC(F)(F)c1ccc(CNC(=O)[C@H]2CN(C(=O)Nc3ccnc(C(=O)N4CCCC4)c3)CCN2S(=O)(=O)c2ccc(OC(F)(F)F)cc2)cc1` [Example 514, (R)-4-(4-trifluoromethoxy-benzenesulfonyl)-piperazine-1,3-dicarboxylic acid 3-[4-(1,1-difluoro-propyl)-benzylamide] 1-{[2-(pyrrolidine-1-carbonyl)-pyridin-4-yl]-amide}], the half-inhibitory concentration (IC50) in experiment [1] and in experiment [2] was under 0.1 µM each time.
On to `CCCc1ccc(CNC(=O)[C@H]2CN(c3cnc(C(=O)OC)c(NC(C)=O)n3)CCN2S(=O)(=O)c2ccc(OC(F)(F)F)cc2)cc1` [Example 515, (R)-6′-acetylamino-3-(4-propyl-benzylcarbamoyl)-4-(4-trifluoromethoxy-benzenesulfonyl)-3,4,5,6-tetrahydro-2H-[1,2′]bipyrazinyl-5′-carboxylic acid methyl ester], for which the IC50 in experiment [1] and in experiment [2] was under 0.1 µM each time.
Regarding `CCCc1ccc(CNC(=O)[C@H]2CN(c3n[nH]c(=O)s3)CCN2S(=O)(=O)c2ccc(OC(F)(F)F)cc2)cc1` [Example 516, (R)-4-(5-oxo-4,5-dihydro-[1,3,4]thiadiazol-2-yl)-1-(4-trifluoromethoxy-benzenesulfonyl)-piperazine-2-carboxylic acid 4-propyl-benzylamide], the half-inhibitory concentration (IC50) in experiment [1] and in experiment [2] was under 0.1 µM each time.
For the compound `CCC(F)(F)c1ccc(CNC(=O)[C@H]2CN(C(=O)Nc3ccnc(Cl)c3)CCN2S(=O)(=O)c2ccc(OC(F)(F)F)cc2)cc1` [Example 517, (R)-4-(4-trifluoromethoxy-benzenesulfonyl)-piperazine-1,3-dicarboxylic acid 1-[(2-chloro-pyridin-4-yl)-amide] 3-[4-(1,1-difluoro-propyl)-benzylamide]], the IC50 in experiment [1] and in experiment [2] was under 0.1 µM each time.
As for `CCC(F)(F)c1ccc(CNC(=O)[C@H]2CN(C(=O)Cc3nnn(C)n3)CCN2S(=O)(=O)c2ccc(OC(F)(F)F)cc2)cc1` [Example 518, (R)-4-[2-(2-methyl-2H-tetrazol-5-yl)-acetyl]-1-(4-trifluoromethoxy-benzenesulfonyl)-piperazine-2-carboxylic acid 4-(1,1-difluoro-propyl)-benzylamide], the IC50 in experiment [1] and in experiment [2] was under 0.1 µM each time.
For the compound `CCC(F)(F)c1ccc(CNC(=O)[C@H]2CN(C(=O)Cc3nnnn3C)CCN2S(=O)(=O)c2ccc(OC(F)(F)F)cc2)cc1` [Example 519, (R)-4-[2-(1-methyl-1H-tetrazol-5-yl)-acetyl]-1-(4-trifluoromethoxy-benzenesulfonyl)-piperazine-2-carboxylic acid 4-(1,1-difluoro-propyl)-benzylamide], the IC50 in experiment [1] and in experiment [2] was 0.1 to 1 µM in each case.
Regarding `CCC(F)(F)c1ccc(CNC(=O)[C@H]2CN(C(=O)c3cscn3)CCN2S(=O)(=O)c2ccc(OC(F)(F)F)cc2)cc1` [Example 520, (R)-4-(thiazole-4-carbonyl)-1-(4-trifluoromethoxy-benzenesulfonyl)-piperazine-2-carboxylic acid 4-(1,1-difluoro-propyl)-benzylamide], the results for the IC50 in experiment [1] and in experiment [2] were 0.1 to 1 µM and over 1 µM, respectively.
On to `CCC(F)(F)c1ccc(CNC(=O)[C@H]2CN(C(=O)c3cc(C)on3)CCN2S(=O)(=O)c2ccc(OC(F)(F)F)cc2)cc1` [Example 521, (R)-4-(5-methyl-isoxazole-3-carbonyl)-1-(4-trifluoromethoxy-benzenesulfonyl)-piperazine-2-carboxylic acid 4-(1,1-difluoro-propyl)-benzylamide], for which the half-inhibitory concentration (IC50) is 0.1 to 1 µM in experiment [1] and over 1 µM in experiment [2].
As for `CCCc1ccc(CNC(=O)[C@H]2CN(c3cnc(C(=O)O)cn3)CCN2S(=O)(=O)c2ccc(CC)s2)cc1` [Example 522, (R)-4-(5-ethyl-thiophene-2-sulfonyl)-3-(4-propyl-benzylcarbamoyl)-3,4,5,6-tetrahydro-2H-[1,2′]bipyrazinyl-5′-carboxylic acid], the IC50 in experiment [1] and in experiment [2] was under 0.1 µM throughout.
For `Cc1cc(N2CCN(S(=O)(=O)c3ccc(OC(F)(F)F)cc3)[C@@H](C(=O)NCc3ccc(C(C)C)cc3)C2)n[nH]1` [Example 523, (R)-4-(5-methyl-1H-pyrazol-3-yl)-1-(4-trifluoromethoxy-benzenesulfonyl)-piperazine-2-carboxylic acid 4-isopropyl-benzylamide], the IC50 in experiment [1] and in experiment [2] was 0.1 to 1 µM in each case.
With `CCc1ccc(S(=O)(=O)N2CCN(c3cnc(C(=O)O)cn3)C[C@@H]2C(=O)NCc2ccc(C(C)(C)C)cc2)cc1` [Example 524, (R)-3-(4-tert-butyl-benzylcarbamoyl)-4-(4-ethyl-benzenesulfonyl)-3,4,5,6-tetrahydro-2H-[1,2′]bipyrazinyl-5′-carboxylic acid], the half-inhibitory concentration (IC50) in experiment [1] and in experiment [2] was under 0.1 µM each time.
`CCC(F)(F)c1ccc(CNC(=O)[C@H]2CN(C(=O)Nc3cscn3)CCN2S(=O)(=O)c2ccc(OC(F)(F)F)cc2)cc1` [Example 525, (R)-4-(4-trifluoromethoxy-benzenesulfonyl)-piperazine-1,3-dicarboxylic acid 3-[4-(1,1-difluoro-propyl)-benzylamide] 1-thiazol-4-ylamide]: the 50% inhibitory concentration (IC50) in experiment [1] and in experiment [2] was under 0.1 µM throughout.
Regarding `CCC(F)(F)c1ccc(CNC(=O)[C@H]2CN(C(=O)Nc3cc(C)on3)CCN2S(=O)(=O)c2ccc(OC(F)(F)F)cc2)cc1` [Example 526, (R)-4-(4-trifluoromethoxy-benzenesulfonyl)-piperazine-1,3-dicarboxylic acid 3-[4-(1,1-difluoro-propyl)-benzylamide] 1-[(5-methyl-isoxazol-3-yl)-amide]], the concentration for half-maximal inhibition (IC50) in experiment [1] and in experiment [2] was 0.1 to 1 µM in each case.
In the case of `CCC(F)(F)c1ccc(CNC(=O)[C@H]2CN(C(=O)Nc3nc(C)ns3)CCN2S(=O)(=O)c2ccc(OC(F)(F)F)cc2)cc1` [Example 527, (R)-4-(4-trifluoromethoxy-benzenesulfonyl)-piperazine-1,3-dicarboxylic acid 3-[4-(1,1-difluoro-propyl)-benzylamide] 1-[(3-methyl-[1,2,4]thiadiazol-5-yl)-amide]], the IC50 in experiment [1] and in experiment [2] was 0.1 to 1 µM each time.
Turning to `CCC(F)(F)c1ccc(CNC(=O)[C@H]2CN(C(=O)Nc3cc(C)no3)CCN2S(=O)(=O)c2ccc(OC(F)(F)F)cc2)cc1` [Example 528, (R)-4-(4-trifluoromethoxy-benzenesulfonyl)-piperazine-1,3-dicarboxylic acid 3-[4-(1,1-difluoro-propyl)-benzylamide] 1-[(3-methyl-isoxazol-5-yl)-amide]], the concentration for half-maximal inhibition (IC50) in experiment [1] is under 0.1 µM; in experiment [2] it was 0.1 to 1 µM.
The like results for `CC(=O)N1CCN(S(=O)(=O)c2ccc(OC(F)(F)F)cc2)[C@@H](C(=O)NCc2ccc(C(C)(C)C)cc2)C1` [Example 529, (R)-4-acetyl-1-(4-trifluoromethoxy-benzenesulfonyl)-piperazine-2-carboxylic acid 4-tert-butyl-benzylamide] were, in that order, under 0.1 µM and under 0.1 µM.
For `CCCc1ccc(CNC(=O)[C@H]2CN(c3cnc(N)cn3)CCN2S(=O)(=O)c2ccc(OC(F)(F)F)cc2)cc1` [Example 530, (R)-5′-amino-4-(4-trifluoromethoxy-benzenesulfonyl)-3,4,5,6-tetrahydro-2H-[1,2′]bipyrazinyl-3-carboxylic acid 4-propyl-benzylamide], the figures for the IC50 in experiment [1] and in experiment [2] were under 0.1 µM and 0.1 to 1 µM, respectively.

The record behind these values is patent US8017612B2, “Piperazine compound and use thereof as a HCV polymerase inhibitor” (priority 2006, dated 2011).
